Assay results taken from EP0555116B1, “Compositions based on antiseptics and their applications” (HUTCHINSON, priority 1992, dated 1993).

Test system: virus HIV1
Experiment: Infectivity of HIV1 for normal human T lymphocytes after 10 min treatment of the virus; reverse transcriptase activity (ATI) in culture supernatants
Assay type: cell-based
Settings: for action virucide: produit utilisé seul, 0,002
Protocol: Pour l'étude du pouvoir infectieux résiduel après traitement des préparations virales, le milieu de culture des lymphocytes T humains normaux (milieu complet) correspond au milieu ci-dessus auquel sont ajoutés 10 % d'interleukine II, du polybrène (2 µg/ml) et du sérum anti-interféron humain 1/2500 (M.A. REY et al., Biochem. Biophys. Res. Com., 1984, 121, 126-133).
L'infectivité est étudiée sur des lymphocytes T obtenus à partir du sang périphérique d'un donneur humain sain, et séparés sur un gradient de Ficoll.
Les lymphocytes sont stimulés pendant 3 jours par de la phytohémagglutinine P (PHA-P), diluée au 1/500 et cultivés dans du milieu complet. Les cellules T blastiques sont infectées par le virus, traité ou non, pour mettre en évidence le pouvoir infectieux résiduel.
Le virus est obtenu à partir d'un surnageant de culture de la lignée CEM infectée par HIV1. Cette lignée T lymphoblastoïde infectée par HIV1 est utilisée pour la production virale.
Le titre des surnageants utilisés est évalué après dosage de l'activité transcriptase inverse (ATI) du virus.
Dans les essais qui suivent, on a utilisé un surnageant dont l'ATI est de 1,8.10^6 cpm/ml. 2. Méthodes :
• Préparation de la solution virale : plusieurs tubes contenant 1 ml de surnageant viral, ATI 1,8.10^6 cmp/ml sont concentrés par ultracentrifugation. Les culots de virus ainsi obtenus sont repris soit par chacune des dilutions de produit réalisées dans de l'eau bidistillée stérile, soit par de l'eau (virus témoin non traité). • Traitement des préparations virales : les préparations virales concentrées sont toutes traitées selon le protocole indiqué ci-dessous : • . échantillons viraux traités : les culots de virus concentrés par ultracentrifugation sont resuspendus dans 100 µl de chacune des concentrations en produits étudiés et incubés pendant 10 minutes. • . échantillon viral témoin : témoin virus non traité : le produit est remplacé par 100 µl d'eau bidistillée stérile. A la suite de ce temps d'incubation de 10 minutes, le virus présent dans chaque échantillon est rincé puis reconcentré par addition de 12 ml de milieu RPMI 1640 et ultracentrifugation. Les culots de virus sont alors repris dans 1 ml de milieu complet et utilisés pour l'infection de lymphocytes T humains normaux. • Mesure de l'infectivité des échantillons : 4.10^6 lymphocytes T humains normaux sont infectés avec chacune des préparations virales traitées ou témoins indiquées ci-dessus. L'infection des cellules T est réalisée selon une méthode précédemment décrite (F. BARRE-SINOUSSI et al., Science, 1983, 220, 868-871) : en résumé 4.10^6 cellules en suspension dans 1 ml de milieu complet sont incubées avec 1 ml de chacune des préparations virales traitées ou témoins pendant 1 heure à 37°C. Après 2 lavages par plusieurs ml de milieu de culture, les suspensions cellulaires sont ajustées à la concentration de 1.10^6 cellules par ml. Le jour de l'infection est considéré comme jour 0. • . Cellules témoin : 4.10^6 lymphocytes T sont cultivés et passés tous les 3 ou 4 jours dans les mêmes conditions que tous les autres échantillons. Ce témoin correspond au témoin négatif de la production virale au cours de la manipulation. La production virale au cours du temps est déterminée en mesurant l'activité transcriptase inverse présente dans les surnageants de culture selon le protocole décrit ci-dessous. • . Mesure de l'activité transcriptase inverse des préparations virales témoins et des échantillons viraux traités par les produits : ce dosage permet d'évaluer la présence de virus résiduel non inactivé dans l'échantillon de départ. Il est réalisé à partir de 1 ml de surnageant de culture, prélevé tous les 3 ou 4 jours et ultracentrifugé.
Les activités enzymatiques sont mesurées dans 50 µl d'un mélange réactionnel contenant 50 mM Tris pH 7,8, 20 mM MgCl2, 20 mM KCl, 2 mM dithiotréitol, 0,25 OD/ml oligo dT, 0,25 OD/ml poly rA, 0,1 % Triton X 100 et 2,5 µCi 3H DTTP. […]

CCCCCCCCCC[N+](C)(C)CCCCCCCCCC [Bardac®, chlorure de didécyldiméthylammonium]
ATI dans les surnageants (Bardac® 0,01 %, J3): 334 cpm/ml
ATI dans les surnageants (Bardac® 0,01 %, J6): 222 cpm/ml
ATI dans les surnageants (Bardac® 0,01 %, J10): 1768 cpm/ml
ATI dans les surnageants (Bardac® 0,01 %, J13): 1592 cpm/ml
ATI dans les surnageants (Bardac® 0,01 %, J17): 190 cpm/ml
ATI dans les surnageants (Bardac® 0,01 %, J20): 390 cpm/ml
ATI dans les surnageants (Bardac® 0,01 %, J23): 1328 cpm/ml
ATI dans les surnageants (Bardac® 0,01 %, J27): 780 cpm/ml
ATI dans les surnageants (Bardac® 0,01 %, J30): 1000 cpm/ml
ATI dans les surnageants (Bardac® 0,0004 %, J3): 702 cpm/ml
ATI dans les surnageants (Bardac® 0,0004 %, J6): 18136 cpm/ml
ATI dans les surnageants (Bardac® 0,0004 %, J10): 117326 cpm/ml
ATI dans les surnageants (Bardac® 0,0004 %, J13): 74214 cpm/ml
ATI dans les surnageants (Bardac® 0,0004 %, J17): 50674 cpm/ml
ATI dans les surnageants (Bardac® 0,0004 %, J20): 22478 cpm/ml
ATI dans les surnageants (Bardac® 0,0004 %, J23): 13806 cpm/ml
ATI dans les surnageants (Bardac® 0,0004 %, J27): 7800 cpm/ml
ATI dans les surnageants (Bardac® 0,0004 %, J30): 4426 cpm/ml
ATI dans les surnageants (Bardac® 0,002 %, J3): 464 cpm/ml
ATI dans les surnageants (Bardac® 0,002 %, J6): 2472 cpm/ml
ATI dans les surnageants (Bardac® 0,002 %, J10): 16066 cpm/ml
ATI dans les surnageants (Bardac® 0,002 %, J13): 24902 cpm/ml
ATI dans les surnageants (Bardac® 0,002 %, J17): 77754 cpm/ml
ATI dans les surnageants (Bardac® 0,002 %, J20): 75554 cpm/ml
ATI dans les surnageants (Bardac® 0,002 %, J23): 101394 cpm/ml
ATI dans les surnageants (Bardac® 0,002 %, J27): 80560 cpm/ml
ATI dans les surnageants (Bardac® 0,002 %, J30): 64692 cpm/ml
ATI dans les surnageants (Bardac® 0,004 %, J3): 346 cpm/ml
ATI dans les surnageants (Bardac® 0,004 %, J6): 298 cpm/ml
ATI dans les surnageants (Bardac® 0,004 %, J10): 160 cpm/ml
ATI dans les surnageants (Bardac® 0,004 %, J13): 170 cpm/ml
ATI dans les surnageants (Bardac® 0,004 %, J17): 350 cpm/ml
ATI dans les surnageants (Bardac® 0,004 %, J20): 218 cpm/ml
ATI dans les surnageants (Bardac® 0,004 %, J23): 444 cpm/ml
ATI dans les surnageants (Bardac® 0,004 %, J27): 244 cpm/ml
ATI dans les surnageants (Bardac® 0,004 %, J30): 264 cpm/ml
ATI dans les surnageants (Bardac® 0,006 %, J3): 320 cpm/ml
ATI dans les surnageants (Bardac® 0,006 %, J6): 326 cpm/ml
ATI dans les surnageants (Bardac® 0,006 %, J10): 204 cpm/ml
ATI dans les surnageants (Bardac® 0,006 %, J13): 248 cpm/ml
ATI dans les surnageants (Bardac® 0,006 %, J17): 364 cpm/ml
ATI dans les surnageants (Bardac® 0,006 %, J20): 180 cpm/ml
ATI dans les surnageants (Bardac® 0,006 %, J23): 328 cpm/ml
ATI dans les surnageants (Bardac® 0,006 %, J27): 588 cpm/ml
ATI dans les surnageants (Bardac® 0,006 %, J30): 196 cpm/ml
action virucide: ne sont pas virucides

[H]/N=C(\N/C(=N/[H])NCCCCCCNC(=N)NC(=N)Nc1ccc(Cl)cc1)Nc1ccc(Cl)cc1 [Chlorhexidine, digluconate de chlorhexidine, reference compound]
ATI dans les surnageants (Chlorhexidine 0,01 %, J3): 262 cpm/ml
ATI dans les surnageants (Chlorhexidine 0,01 %, J6): 274 cpm/ml
ATI dans les surnageants (Chlorhexidine 0,01 %, J10): 200 cpm/ml
ATI dans les surnageants (Chlorhexidine 0,01 %, J13): 250 cpm/ml
ATI dans les surnageants (Chlorhexidine 0,01 %, J17): 230 cpm/ml
ATI dans les surnageants (Chlorhexidine 0,01 %, J20): 272 cpm/ml
ATI dans les surnageants (Chlorhexidine 0,01 %, J23): 456 cpm/ml
ATI dans les surnageants (Chlorhexidine 0,01 %, J27): 420 cpm/ml
ATI dans les surnageants (Chlorhexidine 0,01 %, J30): 276 cpm/ml
ATI dans les surnageants (Chlorhexidine 0,002 %, J3): 252 cpm/ml
ATI dans les surnageants (Chlorhexidine 0,002 %, J6): 352 cpm/ml
ATI dans les surnageants (Chlorhexidine 0,002 %, J10): 1304 cpm/ml
ATI dans les surnageants (Chlorhexidine 0,002 %, J13): 1752 cpm/ml
ATI dans les surnageants (Chlorhexidine 0,002 %, J17): 4288 cpm/ml
ATI dans les surnageants (Chlorhexidine 0,002 %, J20): 6138 cpm/ml
ATI dans les surnageants (Chlorhexidine 0,002 %, J23): 4614 cpm/ml
ATI dans les surnageants (Chlorhexidine 0,002 %, J27): 1616 cpm/ml
ATI dans les surnageants (Chlorhexidine 0,002 %, J30): 4528 cpm/ml
ATI dans les surnageants (Chlorhexidine 0,005 %, J3): 360 cpm/ml
ATI dans les surnageants (Chlorhexidine 0,005 %, J6): 374 cpm/ml
ATI dans les surnageants (Chlorhexidine 0,005 %, J10): 580 cpm/ml
ATI dans les surnageants (Chlorhexidine 0,005 %, J13): 742 cpm/ml
ATI dans les surnageants (Chlorhexidine 0,005 %, J17): 1902 cpm/ml
ATI dans les surnageants (Chlorhexidine 0,005 %, J20): 1126 cpm/ml
ATI dans les surnageants (Chlorhexidine 0,005 %, J23): 1226 cpm/ml
ATI dans les surnageants (Chlorhexidine 0,005 %, J27): 528 cpm/ml
ATI dans les surnageants (Chlorhexidine 0,005 %, J30): 720 cpm/ml
action virucide: ne sont pas virucides
